In patent US10869931B2, “Polyethylene glycol-modified angiogenesis inhibitor HM-1 and application thereof” (NANJING ANJI BIOLOGICAL TECHNOLOGY CO.,LTD, priority 2016, dated 2020):
Marks after values point to notes of the source that are not given here. Where no end group is shown, it is not given here.

How the values were obtained:
[1] = system: Lung cancer tumor cells; assay: MTT proliferation inhibition, lung cancer cells; format: cell-based, human; design: concentration or dose not given beside the values; settings: 48 h
Protocol: (§1) The activity of mPEG-HM-1 to inhibit the growth of various tumor cells was examined by MTT assay. The tumor cells were cultured to a concentration of 90% or more in a 37° C., 5% CO2 incubator and collected by trypsinization. The cells were resuspended in the culture medium and counted under a microscope to adjust the cell concentration to 2×10^4 cells/mL, the cell suspension was inoculated into a 96-well plate at 100 μL/well and incubated overnight at 37° C. in a 5% CO2 incubator. mPEG-HM-1 was diluted with the culture solution to each predetermined concentration. Docetaxel is diluted to the final concentration with the culture medium. After the cells were fully attached, each dilution was added to a 96-well plate (100 μL/well). The mPEG-HM-1 dilution was added as a drug-administered group, and docetaxel was added as a positive control group, and a culture solution without any drug was used as a negative control group. Incubate for 48 h at 37° C. in a 5% CO2 incubator. 5 mg/mL of MTT was added to a 96-well plate at 20 μL per well, and incubation was continued for 4 hours. The medium was aspirated, dissolved in 150 μL of DMSO per well, and gently mixed by shaking for 10 min. The absorbance was measured at a measurement wavelength of 570 nm and a reference wavelength of 630 nm using a microplate reader, and the rate of growth inhibition (proliferation inhibition, PI) was calculated. The formula is as follows: PI (%)=1−administration group/negative group
(§2) The test was repeated 3 times independently, and the results obtained by the test were expressed as mean±SD, and the test results are shown in Table 15 to Table 18.

[2] = system: IL-1β production by mouse peritoneal macrophages; assay: IL-1β production by mouse peritoneal macrophages (ELISA); format: cell-based; settings: 48 h
Protocol: (1) IL-1β production: mice were intraperitoneally injected with 1 mL of broth (containing 6%) starch, and three days later, the mouse peritoneal macrophages were aseptically taken, washed twice with 1640 medium, and the cell concentration was adjusted to 2×10^6 cells/mL, inject into a 24-well culture plate, 1 mL per well, incubate for 3 hours in a cell culture incubator, shake once every 30 minutes, and allow the cells to fully adhere. Then, it was washed twice with the culture solution to remove unattached cells. The blank group was added with PBS, the positive group was added with the positive drug dexamethasone (Dex), the model group was not administered, to the experimental group was added low, medium and high three concentrations of mPEG-HM-1, and the culture was continued for 48 hours after the administration, 1000 r/min. Centrifuge for 15 min. The supernatant was taken as a sample for testing activity of IL-1β.
(2) Determination of IL-1β content: using R&D mouse IL-1β enzyme-linked immunosorbent assay kit, according to the kit instructions as follows: respectively, the tested samples and different concentrations of standard products, sealed with sealing tape the reaction well and incubated at 37° C. for 90 min; the plate was washed four times; the biotinylated antibody working solution (100 μL/well) was added, and the reaction well was sealed with sealing paper, incubated at 37° c. for 60 min; the plate was washed four times; Add the enzyme conjugate working solution (100 μL/well), seal the reaction well with sealing paper, incubate at 37° C. for 30 min; wash the plate four times; add color reagent (100 μL/well), incubate at 37° C. 10-20 min, add stop solution (100 μL/well), mix and measure OD450 value.

[3] = system: xylene-induced ear swelling in Kunming mice; assay: Xylene-induced ear swelling in mice; format: in vivo, mouse; settings: for Inhibition rate: ear swelling vs control
Protocol: Kunming mice were used. The saline group was used as the blank control group, the aspirin group (200 mg/kg) as the positive control group, and the mPEG-HM-1 administration group as the experimental group. Mice were administered once daily for 5 consecutive days. The blank control group was given an equal volume of physiological saline. One hour after the last administration, 0.05 mL of xylene was applied to both sides of the right ear of the mice to cause inflammation, and the left ear was not coated as normal ears. After 2 h, the mice were sacrificed by dislocation, and the ears were cut along the auricle. Ear pieces were taken with a puncher, weighed, and the swelling degree and swelling rate were calculated. Swelling degree=right ear piece weight-left ear piece weight, swelling rate=(swelling degree/left ear piece weight)×100%. Statistical t-test was performed on the test results, *P<0.05 was a significant difference, and **P<0.01 was a very significant difference. See Table 31 to Table 34 for the results.

[4] = system: Colorectal cancer tumor cells; assay: MTT proliferation inhibition, colorectal cancer cells; format: cell-based, human; design: concentration or dose not given beside the values; settings: 48 h
Protocol: as §1, §2

[5] = system: retinal neovascular clusters in OIR C57/B16 mice; assay: Retinal blood vessels in OIR mice; format: in vivo, mouse; settings: for Neovascular clusters area: retina evaluated on day 17; for Inhibition rate: neovascular clusters area vs control, day 17
Excerpt: Establishment of the OIR model: Exposure of young mouse and their mothers to 75% hyperoxic environment from day 7 to day 12 after birth of C57/B16 mice caused rapid disappearance of capillaries in the central retina. Upon returning to the indoor air on the 12th day, the retinal blood vessels, upon exposing to hyperoxia, rapidly disappeared, causing extensive abnormal neovascularization, and the central portion of the retina remained largely avascular for a long time. After the blood vessels disappeared completely, on the 13th day, physiological saline (negative control group), mPEG-SC-HM-1, mPEG2-NHS-HM-1, mPEG-ALD10k-HM-1, and mPEG-bALD-HM-1, were administered by intravitreal injection and retinal vessels were evaluated on day 17 (to label unclosed vessels, […] of Texas Red-labeled tomato lectin was injected into the left ventricle and circulated for 5 min).

[6] = system: mouse spleen lymphocytes; assay: ConA-stimulated mouse spleen lymphocyte proliferation (MTT); format: cell-based; settings: ConA 5 μg/mL, 48 h
Protocol: Tris-NH4Cl was used to break the red blood cells, and the cells were allowed to stand in an ice water bath for 4 min, centrifuged (1000 rpm×5 min), the supernatant was discarded, and the cells were washed twice with sterile PBS. Finally, cells were suspended in RPMI 1640 medium (5 mL) supplemented with 10% calf serum, counted, adjusted to a cell concentration of 5×10^6/mL, and cultured in a 96-well culture plate The test group consisted of blank control group, concanavalin A (ConA) group, dexamethasone (Dex) group (0.02 mg/mL) and mPEG-HM-1 group. […] The cells were cultured in a 37° C. cell culture chamber for 48 h. After the completion of the culture, 20 μL of MTT was added to each well, and the culture was continued for 4 h. Finally, all the solutions in each well were discarded, 100 μL of DMSO was added to each well, and the mixture was shaken and detected by a microplate reader OD value at 570 nm, 5 parallels per hole.

[7] = 10 mg/kg once daily for 5 days, 2 h after xylene
[8] = 20 mg/kg once daily for 5 days, 2 h after xylene
[9] = 40 mg/kg once daily for 5 days, 2 h after xylene
[10] = 80 mg/kg once daily for 5 days, 2 h after xylene

Row | Substance | rate of growth inhibition [1] [%] | IL-1β ([2]; 10 μg/mL) [pg/mL] | Inhibition Rate of IL-1β production ([2]; 10 μg/mL) [%] | IL-1β ([2]; 20 μg/mL) [pg/mL] | Inhibition Rate of IL-1β production ([2]; 20 μg/mL) [%] | Swelling [3, 7] | Inhibition rate ([3]; 10 mg/kg once daily for 5 days) [%] | Swelling [3, 8] | Inhibition rate ([3]; 20 mg/kg once daily for 5 days) [%] | rate of growth inhibition [4] [%] | A570 nm/A630 nm ([6]; 10 μg/mL) | Inhibition Rate of spleen lymphocyte proliferation ([6]; 10 μg/mL) [%] | A570 nm/A630 nm ([6]; 20 μg/mL) | Inhibition Rate of spleen lymphocyte proliferation ([6]; 20 μg/mL) [%] | IL-1β ([2]; 40 μg/mL) [pg/mL] | Swelling [3, 9] | Inhibition rate ([3]; 40 mg/kg once daily for 5 days) [%] | A570 nm/A630 nm ([6]; 40 μg/mL) | Inhibition Rate of spleen lymphocyte proliferation ([6]; 40 μg/mL) [%] | Inhibition Rate of IL-1β production ([2]; 40 μg/mL) [%] | other results
1 | mPEG-ALD5k-Arg-Gly-Ala-Asp-Arg-Ala-Gly-Gly-Gly-Gly-Arg-Gly-Asp ({mPEG‑ALD 5 kDa}-RGADRAGGGGRGD) [mPEG-ALD5k-HM-1] | 45.76 ± 13.20 | 654.50 ± 18.43 | 28.62 | 516.13 ± 10.95 | 43.71 | 4.80 ± 0.35* mg | 21.52 | 4.16 ± 0.14** mg | 32.10 | 57.30 ± 15.82 | 0.5448 ± 0.1072 | 20.68 | 0.4779 ± 0.1178 | 30.42 | – | – | – | – | – | – | IL-1β ([2]; 5 μg/mL): 734.73 ± 16.59 pg/mL; Inhibition Rate of IL-1β production ([2]; 5 μg/mL): 19.87%; Inhibition rate ([3]; 5 mg/kg once daily for 5 days): 10.17%; Swelling ([3]; 5 mg/kg once daily for 5 days, right minus left ear piece weight 2 h after xylene): 5.50 ± 0.21 mg; Neovascular clusters area ([5]; 25 μg intravitreal injection on day 13): 0.108 ± 0.006 mm^2; Inhibition rate ([5]; 25 μg intravitreal): 50.98%**; A570 nm/A630 nm ([6]; 5 μg/mL): 0.6241 ± 0.0917; Inhibition Rate of spleen lymphocyte proliferation ([6]; 5 μg/mL): 9.14%
2 | mPEG-ALD10k-Arg-Gly-Ala-Asp-Arg-Ala-Gly-Gly-Gly-Gly-Arg-Gly-Asp ({mPEG‑ALD 10 kDa}-RGADRAGGGGRGD) [mPEG-ALD10k-HM-1] | 65.73 ± 16.20 | 724.09 ± 16.59 | 21.03 | 620.94 ± 18.43 | 32.28 | 5.36 ± 0.12 mg | 12.36 | 4.67 ± 0.79* mg | 23.67 | 80.22 ± 20.03 | 0.6116 ± 0.1046 | 10.96 | 0.5352 ± 0.1022 | 22.08 | 455.16 ± 10.95 | 3.58 ± 0.33** mg | 41.58 | 0.4651 ± 0.1086 | 32.29 | – | Neovascular clusters area ([5]; 50 μg intravitreal injection on day 13): 0.085 ± 0.007 mm^2; Inhibition rate ([5]; 50 μg intravitreal): 61.75%**; inhibition rate of retinal neovascular clusters ([5]; OIR mice, 50 μg intravitreal injection, evaluated day 17): 61.75%
3 | mPEG-ALD20k-Arg-Gly-Ala-Asp-Arg-Ala-Gly-Gly-Gly-Gly-Arg-Gly-Asp ({mPEG‑ALD 20 kDa}-RGADRAGGGGRGD) [mPEG-ALD20k-HM-1] | 66.38 ± 17.16 | – | – | 729.13 ± 13.12 | 20.48 | – | – | 4.89 ± 0.20 mg | 20.10 | 72.43 ± 19.32 | – | – | 0.6035 ± 0.0989 | 12.14 | 628.18 ± 15.34 | 4.52 ± 0.32* mg | 26.19 | 0.4876 ± 0.1259 | 29.02 | 31.49 | IL-1β ([2]; 80 μg/mL): 438.93 ± 12.56 pg/mL; Inhibition Rate of IL-1β production ([2]; 80 μg/mL): 52.13%; Swelling [3, 10]: 3.70 ± 0.20** mg; Inhibition rate ([3]; 80 mg/kg once daily for 5 days): 39.47%; inhibition rate of ear swelling ([3]; 80 mg/kg, once daily for 5 days, mice): 37.76%; Neovascular clusters area ([5]; 100 μg intravitreal injection on day 13): 0.095 ± 0.009 mm^2; Inhibition rate ([5]; 100 μg intravitreal): 57.03%**; A570 nm/A630 nm ([6]; 80 μg/mL): 0.4406 ± 0.1074; Inhibition Rate of spleen lymphocyte proliferation ([6]; 80 μg/mL): 35.85%
4 | mPEG-ALD40k-Arg-Gly-Ala-Asp-Arg-Ala-Gly-Gly-Gly-Gly-Arg-Gly-Asp ({mPEG‑ALD 40 kDa}-RGADRAGGGGRGD) [mPEG-ALD40k-HM-1] | 55.44 ± 16.13 | – | – | – | – | – | – | – | – | 70.92 ± 16.52 | – | – | – | – | 742.06 ± 16.59 | 5.41 ± 0.16 mg | 11.53 | 0.6176 ± 0.0998 | 10.09 | 19.07 | IL-1β ([2]; 80 μg/mL): 664.40 ± 18.43 pg/mL; Inhibition Rate of IL-1β production ([2]; 80 μg/mL): 27.54%; IL-1β ([2]; 160 μg/mL): 495.96 ± 10.95 pg/mL; Inhibition Rate of IL-1β production ([2]; 160 μg/mL): 45.91%; Swelling [3, 10]: 4.77 ± 0.62* mg; Inhibition rate ([3]; 80 mg/kg once daily for 5 days): 22.02%; Swelling ([3]; 160 mg/kg once daily for 5 days, 2 h after xylene): 4.16 ± 0.25** mg; Inhibition rate ([3]; 160 mg/kg once daily for 5 days): 32.09%; Neovascular clusters area ([5]; 200 μg intravitreal injection on day 13): 0.106 ± 0.010 mm^2; Inhibition rate ([5]; 200 μg intravitreal): 52.02%**; A570 nm/A630 nm ([6]; 80 μg/mL): 0.5040 ± 0.1239; Inhibition Rate of spleen lymphocyte proliferation ([6]; 80 μg/mL): 26.63%; A570 nm/A630 nm ([6]; 160 μg/mL): 0.4770 ± 0.1057; Inhibition Rate of spleen lymphocyte proliferation ([6]; 160 μg/mL): 30.56%
